Series [1] has as its system SARS-CoV-2. Nature of the series: Antiviral activity against SARS-CoV-2 USA-WA1/2020 infected in African green monkey Vero cells assessed as reduction in viral growth at 2 to 20 uM measured after 2 days by plaque assay. The class given is functional, organism-based. The following applies: Severe acute respiratory syndrome coronavirus 2, dose 2-20 µM, time 2.0 day.
The subject of series [2] is SARS-CoV-2. Nature of the series: Antiviral activity against SARS-CoV-2 USA-WA1/2020 infected in African green monkey Vero E6 cells […] for 1 hrs followed by viral infection and measured after 48 hrs. The class given is functional, organism-based. As to conditions: Severe acute respiratory syndrome coronavirus 2, USA-WA1/2020, Vero C1008.
Series [3] is described as follows: Plasma protein binding in human. The class given is ADME, cell-free.
The subject of series [4] is SARS-CoV-2. Nature of the series: Antiviral activity against SARS-CoV-2 USA-WA1/2020 infected in African green monkey Vero cells assessed as reduction in viral growth at 10 uM measured after 2 days by plaque assay. In kind it is functional, organism-based. As to conditions: Severe acute respiratory syndrome coronavirus 2, time 2.0 day.
Series [5] has as its system SARS-CoV-2. Nature of the series: Antiviral activity against SARS CoV-2. The class given is functional, organism-based. The following applies: Severe acute respiratory syndrome coronavirus 2.

Molecules are shown by their SMILES. Calls of active or inactive are those of the source. The calls are words filed in the database; no cut-off is given here.

A word on the EC50: it is the midpoint of the concentration-response curve.

Regarding `Cc1ccc(NC2CNC2)cc1C(=O)N[C@H](C)c1cccc(-c2ccc(CN3CCCC3)s2)c1`, the result in series [1] was Active. Consider `COC(=O)/C=C/C(=O)NNC(=O)CCc1ccccc1C(=O)N[C@H](C)c1cccc2ccccc12`, for which the concentration giving a half-maximal response (EC50) in series [2] worked out at 0.26 µM. Turning to `CC(=O)N1CCN(c2ccc(OCC3COC(Cn4ccnc4)(c4ccc(Cl)cc4Cl)O3)cc2)CC1` (stereo not drawn) [KETOCONAZOLE], the PPB in series [3] amounted to 99.3%. Turning to `Cc1ccc(NC2CNC2)cc1C(=O)N[C@H](C)c1cccc(-c2ccc(CNC(=O)C3CCCC3)s2)c1`, in series [1], the result was inactive. `Cc1ccc(NC2CNC2)cc1C(=O)N[C@H](C)c1cccc(-c2ccc(CN[C@H]3CC[C@@H](O)C3)s2)c1` (single isomer, unassigned): the outcome in series [4] was inactive. Take `Nc1ccc2cc3ccc(N)cc3nc2c1` [PROFLAVINE]: in series [5], the response was half-maximal at 64 µM (EC50). For the compound `Cc1ccc(OCCN)cc1C(=O)N[C@H](C)c1cccc(-c2ccc(CN3CCCC3)s2)c1`, in series [1], the outcome was inactive.

With `Cc1ccc(OC2CNC2)cc1C(=O)N[C@H](C)c1cccc(-c2ccc(CN3CCCC3)s2)c1`, the outcome in series [1] was Active.

These data come from ChEMBL document CHEMBL5576130, “Non-Covalent Inhibitors of SARS-CoV-2 Papain-Like Protease (PLpro): In Vitro and In Vivo Antiviral Activity” (J Med Chem, 2024).
